What was measured:
[1] = test system: Sprague-Dawley rats; experiment: single dose acute and 7-day range-finding oral toxicity study in rats; format: in vivo
Protocol: Consequently, a single dose acute and 7-day range-finding oral toxicity study in Sprague-Dawley rats was conducted. During the single dose acute phase of the study, the test article was administered as a single dose by oral gavage to groups of 3 male and 3 female Sprague-Dawley rats, each group receiving a higher or lower dose level, based on the reaction of the previous group during the first day of the observation period.
Upon completion of the 7-day treatment period, all animals were euthanized and subjected to a gross necropsy examination (Day 8 study). Clinical signs (ill health, behavioral changes, etc.) were recorded on all surviving animals. Clinical pathology evaluations (hematology, clinical chemistry and coagulation parameters) were performed on all surviving animals (single dose acute & range-finding phases) prior to their scheduled necropsy. Blood samples were collected terminally from the abdominal aorta (while anesthetized with isoflurane).

[2] = test system: Beagle dogs; experiment: MTD determination following p.o. administration in dogs; format: in vivo
Protocol: For MTD determination, the compound was administered once on each occasion by oral gavage, in an incremental fashion to animals, until the maximum tolerated dose is considered to have been reached. This dose was established at 2,000 mg/kg, i.e., the highest dose administered in animals. […] The animal was back to normal activity levels approximately 1 hr post dosing.

[3] = recovery of counter-ion and metabolites in urine and feces of dogs; format: in vivo; details: for mean total recovery of the unchanged counter-ion: urine and feces up to 48 hr
Protocol: Trimebutine 3-thiocarbamoyl-benzenesulfonate was administered as a cross over design once, each dosing separated by at least a 7-day washout period. During this study, assessments included mortality checks, clinical observations, and body weights. Feces and urine samples were collected up to 48 hr post-administration. Blood samples were also collected for pharmacokinetic evaluations on Days 1 and 8 at 10 time points. Pharmacokinetic data are presented in the two following Figures.
After proper preparation of the urine and feces samples, 3-thiocarbamoyl-benzenesulfonate counter-ion and its two potential metabolites (3-cyanobenzenesulfonate and 3-sulfobenzoate) were assessed using a LC/MS/MS method, with analysis by MRM, ESI-. Calibration curves were prepared for each analyte in blank feces homogenate, following the same procedure.

[4] = test system: male Sprague-Dawley rats; experiment: preliminary toxicological evaluation following p.o. administration in rats; format: in vivo
Protocol: A preliminary toxicological evaluation of the compound was done in 250-300 g male Sprague-Dawley rats. Animals were randomized into one of three dosing group, i.e. 250, 500 or 1,000 mg/kg administered by oral gavage. Following administration of the test article, animals were observed hourly for the first 8 hr post-dosing for clinical signs and twice daily thereafter until termination on Day 7. Three animals per group were sacrificed by exsanguination under general anesthesia at 24-hr post dosing or on Day 7 and a gross necropsy was performed in all animals. Additionally, all three rats having received the 500 mg/kg dose and scheduled for sacrifice on Day 7 were placed in individual metabolic cages immediately following test article administration, in order to collect feces and urine during 48 hr. Blood samples were collected terminally from each rat for hematology and serum chemistry evaluation.

[5] = test system: colorectal distension induced pain; experiment: electromyographic colorectal distension (CRD) induced pain model; format: in vivo, mice; details: for VMR response to colorectal distension compared to the control group: mice, 30 and 60 mg/kg oral
From the text: The purpose was to evaluate the antinociceptive effects of Example 20 in an electromyographic colorectal distension (CRD) induced pain model. This model is recognized by experts in the field to be less subjective than the rat Abdominal Withdrawal Response (AWR) colorectal distension model, and has been used to assess the analgesic and sedative properties of several new compounds, including IBS drugs Zhuo, M; Gebhart, G. F. Facilitation and attenuation of a visceral nociceptive reflex from the rostroventral medulla in the rat. Gastroenterology, 2002, 122 1007-1019; Larsson, M. H.; Rapp, L.; Lindström, E. Effect of DSS-induced colitis on visceral sensitivity to colorectal distension in mice. Neurogastroenterology & Motility, 2006, 18, 144-152; Arvidsson, S.; Larsson, M.; Larsson, H.; Lindström, E.; Martinez, V. J. Pain, 2006, 7, 108-118; Jones, R. C. W.; Gebhart, G. F. Models of Visceral Pain: Colorectal Distension (CRD). Currrent Protocols in Pharmacology, 2004, 5.36, DOI: 10.1002/0471141755.ph0536s25.]
Three groups of 10 male mice (C57Bl6) were used: 2 groups received treatments with […] and one group received their vehicle […].
The groups were divided as follows: • i. 2 groups of 10 mice received an oral administration of Example 20 at two doses, 30 and 60 mg/kg. • ii. 1 group of 10 mice received an oral administration of the vehicle (PEG 200) use to administer Example 20.
All groups were implanted with electrodes in the abdominal external oblique musculature under anaesthesia. The surgery for electrode implantation was performed 5 days before the day of the experiment. The day of the experiment, colorectal distension (CRD) was performed in all animals, by inserting a balloon (10-mm long) into the colon, at 5 mm from the anus. The balloon was inflated with warm water, in a stepwise manner, from 0 to 60 mm Hg, with 15 mm Hg increments. […] At various times after these treatments: 2, 4 and 6-hours, the same series of stepwise CRD were performed and electromyographic responses (VMR in millivolts/sec) were recorded.

[6] = accelerated stability protocol; format: physicochemical; details: Polymorph B, 40±2° C., 75±5% RH, six months
Protocol: The long-term stability of Example 20 was assessed using an accelerated stability protocol. For this purpose, samples of Example 20—Polymorph B was placed in borosilicate vials polyethylene plastic bags, sealed in an aluminum bag, and placed in a fiber drum with desiccant. The samples where then subjected to 40±2° C. with 75±5% relative humidity (RH), and stability was monitored at time 0, 1, 2, 3 and 6 months using a standardized HPLC method.

[7] = male rats, single oral dose 250, 500 or 1000 mg/kg

For CCC(COC(=O)c1cc(OC)c(OC)c(OC)c1)(c1ccccc1)N(C)C.NC(=S)c1cccc(S(=O)(=O)O)c1 (stereo not shown) [Example 20], the “dose well tolerated over 7 days without significant clinical signs of toxicity” value ([1]; male and female rats, once daily oral gavage, 7 days) was 1,000 mg/kg, the “death and clinical signs of toxicity” value ([1]; male and female rats, single oral dose up to 2,000 mg/kg) was “no death and no significant clinical signs of toxicity” and the single dose well-tolerated ([1]; male and female rats, single oral gavage) was “up to 2,000 mg/kg”. The “deaths during 7-day repeat dose regimen” value ([1]; rats, 2,000 mg/kg once daily p.o., deaths after 3 and 5 days) was “two animals from the 2,000 mg/kg dose group died”, the “clinical observations, male dog” value ([2]; 2,000 mg/kg p.o.) was “limited to vomiting a few min following dosing administration” and the “clinical signs, female dog” value ([2]; 2,000 mg/kg p.o.) was “Decreased activity level, vomiting, bowel movement, yellowish fluid fecal consistency, vocalization about 15-20 min post-dose, decreased respiration, weak behavior, eyes partially closed, and mild transient tremors”. The “blood pressure, male dog” value ([2]; 2,000 mg/kg p.o., 30 min post dose compared to pre-dose) was “dropped slightly”, the “blood pressure, female dog” value ([2]; 2,000 mg/kg p.o., approximately 30 min post dose) was “almost no change in blood pressure” and the “time back to normal activity levels, female dog” value ([2]; 2,000 mg/kg p.o., post dosing) was “approximately 1 hr”. The “doses orally administered well tolerated” value ([2]; Beagle dogs, oral gavage) was “up to 2,000 mg/kg”, the “maximum tolerated dose (MTD)” value ([2]; Beagle dogs, oral gavage, highest dose administered) was 2,000 mg/kg and the “additional recovery as metabolite 3-cyanobenzenesulfonate” value ([3]; 2 mg/kg i.v.) was 4.7%. For the same molecule, the “recovery associated to 3-sulfobenzoate” value ([3]; 2 mg/kg i.v.) was 0.6%, the “mean total recovery of the unchanged counter-ion” value ([3]; 2 mg/kg i.v.) was “about 72%” and the 3-sulfobenzoate in urine ([3]; 10 mg/kg p.o.) was “not detected”. The “additional recovery as metabolite 3-cyanobenzenesulfonate” value ([3]; 10 mg/kg p.o.) was 14.5%, the “recovery associated to 3-sulfobenzoate” value ([3]; 10 mg/kg p.o.) was 1.7% and the “mean total recovery of the unchanged counter-ion” value ([3]; 10 mg/kg p.o.) was “about 61%”. The hematology parameters ([4]; male rats, single oral dose) was “No significant changes”, the “serum biochemistry variations compared to control (e.g., amylase, creatinine)” value ([4]; male rats, single oral dose) was “minor, transient and remained within the normal range for the species” and the “mortality or clinical signs” value [4, 7] was “No mortality or clinical signs were observed”. The tolerability [4, 7] was “well tolerated”, the necropsy findings ([4]; rats sacrificed on Day 7, 500 or 1000 mg/kg p.o.) was “pale and/or enlarged lungs in a few animals” and the “antinociceptive effects on colorectal distension induced pain” value ([5]; VMR mouse model, overall conclusion) was “significant antinociceptive effects”. The “VMR response to colorectal distension compared to the control group” value ([5]; after 2 and 4 hours) was “overall reduction of the VMR response”, the “VMR response to colorectal distension compared to the control group” value ([5]; at 6 hours, not statistically different from control) was “trend toward efficacy” and the “HPLC purity after storage” value [6] was > 99.7%. For the same molecule, the degradation [6] was “no degradation had been observed”.
